Test results taken from US20240140999A1, “STABILIZED PEPTIDE-MEDIATED TARGETED PROTEIN DEGRADATION” (Dana-Farber Cancer Institute, Inc., priority 2017, published 2024).
Entries after “also recorded” stand apart in the source; their conditions may differ.

Key:
[1] = target: T1, Cop1 (Homo sapiens, UniProt Q8NHY2); conditions: reported value (Uljon et al.); read-out: binding affinity for Cop1; cited from earlier work
[2] = system: SJSA-1 cells; experiment: Cell viability of SJSA-1 cells (Cell Titer Glo); format: cell-based; conditions: thalidomide degron chimeras with distinct linkers, FIG. 12
Experimental: Certain compositions bearing different linkers show no cellular activity (right). Linker1-5 are as depicted in FIG. 5.
A stapled peptide degron chimera modeled after the transactivation domain helix of p53 (ATSP-7041) coupled to a thalidomide degron was applied to cultured cancer cells (SJSA-1, SJSA-X) and MDM2 protein levels were monitored by western blot and compared to that in cells treated with ATSP-7041 alone. The experiment was repeated and cell viability was measured by Cell Titer Glo assay. […] In addition, each of the stapled peptide degron chimeras impaired cancer cell viability in a dose-responsive fashion (FIG. 12). The composition of the linker influenced the presence (FIG. 12, left) or absence (FIG. 12, right) of biological activity.

[3] = target: T2, MCL-1 (Homo sapiens, UniProt Q07820); experiment: MCL-1 levels by western blot in A375P melanoma cells; format: cell-based; conditions: 10 μM, western blot over time
T2 construct: monitoring of cellular MCL-1 levels by western blot of lysates; endogenous in cells; host or cells: A375P melanoma cells
From the text: BIM-C-terminal degron is #IWIAQELRXIGDXFNAYYARR% (SEQ ID NO: 134; #=N-term Ac; %=Lys-degron (see FIG. 3 for the structure of Lys-degron)).
A stapled peptide helix-degron chimeric peptide (FIG. 1) modeled after the pro-apoptotic BIM BH3 domain with an incorporated degron (e.g., Lys-degron, FIG. 2-4) was applied to A375P melanoma cells that express such anti-apoptotic BCL-2 family proteins as MCL-1, which promotes cancer cell survival and chemoresistance.

[4] = target: T1, Cop1; experiment: Co-immunoprecipitation of Myc-tagged MDM2 p60 mutant constructs with Cop1 from 293T cells; format: cell-based; parameters: Cop1-expressing human embryonic kidney 293T cells; endogenous in cells; host or cells: 293T (human embryonic kidney)
From the text: Sequences: GFDVPD (SEQ ID NO:26); GFDAAD (SEQ ID NO:27); GNDVPD (SEQ ID NO:28); PQTVPD (SEQ ID NO:29); and DQIVPD (SEQ ID NO:30).
(§1) (1) Direct genetic modification: Replacement of natural protein residues in structurally disordered regions with derivatives of the sequence DQIVPEY (SEQ ID NO: 25) can cause the chimera proteins to be degraded by Cop1. For example, replacement of the C-terminal sequence GFDVPD (SEQ ID NO: 26) of the p60 isoform of the protein HDM2 with the Trib1-derived sequence DQIVPD (SEQ ID NO: 30) causes Cop1-mediated degradation of the mutant protein when exogenously expressed in Cop1-expressing human embryonic kidney 293T cells (FIG. 13).

[5] = target: T1, Cop1; experiment: Cop1-mediated degradation of Myc-tagged MDM2 p60 chimera constructs expressed in 293T cells; format: cell-based; parameters: Cop1-expressing human embryonic kidney 293T cells; endogenous in cells; host or cells: 293T (human embryonic kidney); conditions: native GFDVPD replaced by the sequence; Cop1-expressing 293T cells
From the text: The native peptide sequence GFDVPD (SEQ ID NO: 26) within MDM2 is replaced by the sequences indicated (lane 3: SEQ ID NO:27; lane 4: SEQ ID NO:28; lane 5: SEQ ID NO:29; and lane 6: SEQ ID NO:30). […] Lower panel: Cop1 loading control.
as §1

T1 sequence (Q8NHY2 whole entry): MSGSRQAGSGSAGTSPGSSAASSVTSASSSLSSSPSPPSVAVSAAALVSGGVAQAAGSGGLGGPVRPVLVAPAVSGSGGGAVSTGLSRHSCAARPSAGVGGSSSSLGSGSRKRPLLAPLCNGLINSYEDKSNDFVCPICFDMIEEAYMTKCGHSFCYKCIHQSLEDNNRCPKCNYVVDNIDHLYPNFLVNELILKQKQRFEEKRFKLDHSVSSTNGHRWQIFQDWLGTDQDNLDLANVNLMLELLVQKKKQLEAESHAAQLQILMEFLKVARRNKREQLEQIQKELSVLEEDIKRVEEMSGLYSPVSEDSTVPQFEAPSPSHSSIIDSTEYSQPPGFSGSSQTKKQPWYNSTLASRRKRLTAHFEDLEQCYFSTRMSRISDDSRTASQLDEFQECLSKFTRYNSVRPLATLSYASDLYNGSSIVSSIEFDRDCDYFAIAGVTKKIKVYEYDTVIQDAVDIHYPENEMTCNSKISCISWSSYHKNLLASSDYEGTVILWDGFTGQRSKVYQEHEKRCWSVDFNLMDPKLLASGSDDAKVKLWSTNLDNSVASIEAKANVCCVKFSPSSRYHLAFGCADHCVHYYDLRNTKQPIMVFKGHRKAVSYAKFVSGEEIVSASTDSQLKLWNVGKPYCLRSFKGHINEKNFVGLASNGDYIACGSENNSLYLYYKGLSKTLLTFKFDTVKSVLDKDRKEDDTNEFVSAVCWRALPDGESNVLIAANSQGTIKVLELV

DQIVPEY
Kd [1]: 0.25 ± 0.04 µM

LTF8EYWAQLX%AA [5-L5]
cell viability / cytotoxic activity [2]: most potent cytotoxic activity

#IWIAQELRXIGDXFNAYYARR% [BIM-C-terminal degron, stapled BIM BH3 peptide; #=N-term Ac; %=Lys-degron (thalidomide on C-terminal lysine side chain)]
cellular MCL-1 protein level [3]: time-dependent decrease in MCL-1 protein; also recorded: induces the degradation of MCL-1

DQIVPD
binding of the Myc-tagged MDM2 p60 mutant construct to Cop1 [4]: direct binding
Cop1-mediated degradation of the MDM2 p60 chimera protein [5]: causes destruction of the p60 chimera protein by the Cop1 protein
